In patent US10376468B2, “Block copolymers and self-assembling nanoparticles formed therefrom” (International Business Machines Corporation, priority 2017, dated 2019):

System: nude BALB/c mice bearing subcutaneous PC-3 tumors
Assay: Biodistribution of DiR-loaded mixed micelles, whole body live imaging
Format: in vivo
Details: tail-vein injection
Description: To test the biodistribution of the micelles of the invention, DiR, a near-infrared fluorophore, was encapsulated in MM5D micelles and administered through tail-vein intravenous injection to nude BALB/c mice bearing subcutaneous PC-3 tumors. The in vivo real-time biodistribution of the fluorophore was studied by whole body live imaging at various time points over seven days. An equivalent amount of free DiR was similarly administered to a control group of mice.
The loading of DiR in MM5D micelles was carried out according to the DOX-loading protocol described above. Briefly, polymer (10 mg) and DiR (0.3 mg) were dissolved in DMSO (2 mL) and the mixture pipetted drop-by-drop into 10 mL of deionized water, with sonification for 10 minutes. The solution was dialyzed against deionized water for 48 hours, with the water changed at 3-, 6-, and 24-hours.
PC-3 cells (5 □ 106) suspended in Matrigel (1:1 ratio) were injected subcutaneously (200 μL) into the right flank of male BALB/c mice. Five weeks post-injection, when the tumor reached 5-7 mm in diameter, mice were treated with 8 mg/kg DiR-loaded mixed micelles via tail-vein injection or an equivalent amount of free DiR.
Whole-body fluorescence images were taken using Xenogen IVIS 100 with an ICG filter (excitation 710-760 nm, emission at 810-875 nm) at time points ranging from 30 minutes to 7-days post-administration. Anesthetized animals (n=3 for micelle formulation and n=2 for free DiR) were placed ion one lateral position on a heated plate (37° C.) for image acquisition with an exposure time set to 2 seconds. Tumors and organs were removed from sacrificed mice after 7-days post-administration and then imaged.

[1] = organs removed 7-days post-administration

DiR signal in the subcutaneous tumor at 48-hours post-injection (8 mg/kg or equivalent free DiR): Little or no signal
Distribution of DiR fluorescence signal at 24-hours (8 mg/kg or equivalent free DiR): concentrated strongly in the liver
DiR signal in the tumor (FIG. 9, tumors and organs) [1]: little or no signal in the tumor
Structure (SMILES): CCCCCCCCCCCCCCCCCCN1/C(=C/C=C/C=C/C=C/C2=[N+](CCCCCCCCCCCCCCCCCC)c3ccccc3C2(C)C)C(C)(C)c2ccccc21.[I-] [free DiR]
Tissues with strongest DiR signal (FIG. 9, tumors and organs) [1]: strongest signal in the lungs, liver, and spleen
